The test system of one assay is AChE. The note with it: cited from earlier work.
Assay [1] has as its target T1, acetylcholinesterase enzyme from electric eel (Electrophorus electricus, UniProt O42275).
T1 construct: purchased Sigma-Aldrich CAS Number 9000-81-1 (catalogue number not given)
The assay is described as follows: Acetylcholinesterase (AChE) inhibitory assay (DTNB/acetylthiocholine iodide, absorbance at 412 nm). Type of assay: biochemical. On the procedure: The in vitro cholinesterase inhibitory activity of the 14 synthesized spiro-oxindole derivatives (IIa–n) were evaluated. […] Galantamine was used as a positive control for comparison.
Acetylcholinesterase (AChE) inhibitory assay.
140 μL of 0.1 M sodium phosphate buffer of pH 8 was first added to a 96-wells microplate followed by 20 μL of test samples and 20 μL of 0.09 units/mL acetylcholinesterase enzyme from electric eel (Sigma-Aldrich, CAS Number 9000-81-1). After 15 min of incubation at 25 °C, 10 μL of 10 mM 5,5′-dithiobis-2-nitrobenzoic acid (DTNB, Sigma-Aldrich, CAS Number 69-78-3) was added into each well followed by 10 μL of 14 mM acetylthiocholine iodide (Sigma-Aldrich, CAS Number 1866-15-5). Thirty min after the initiation of enzymatic reaction, absorbance of the colored end-product was measured using StatFax-2100 microplate reader (Awareness Technology, Inc., USA) at 412 nm. Each test was conducted in triplicates. Test samples were prepared in DMSO at an initial concentration of 1 mg/mL (1000 ppm).
The concentration of DMSO in final reaction mixture was 1%.
The initial screening was carried out at 50 μg/mL of test samples in 1% DMSO. Absorbance of the test samples was corrected by subtracting the absorbance of their respective blank. Percentage enzyme inhibition is calculated using the following formula Percentage of inhibition = Absorbance of control - […]

The source of these data is paper PMC7594047, “Synthesis of a New Class of Spirooxindole–Benzo[b]Thiophene-Based Molecules as Acetylcholinesterase Inhibitors” (Molecules, 2020).

Where two headings read alike, the source gives them in different places.

T1 sequence (O42275 24-633): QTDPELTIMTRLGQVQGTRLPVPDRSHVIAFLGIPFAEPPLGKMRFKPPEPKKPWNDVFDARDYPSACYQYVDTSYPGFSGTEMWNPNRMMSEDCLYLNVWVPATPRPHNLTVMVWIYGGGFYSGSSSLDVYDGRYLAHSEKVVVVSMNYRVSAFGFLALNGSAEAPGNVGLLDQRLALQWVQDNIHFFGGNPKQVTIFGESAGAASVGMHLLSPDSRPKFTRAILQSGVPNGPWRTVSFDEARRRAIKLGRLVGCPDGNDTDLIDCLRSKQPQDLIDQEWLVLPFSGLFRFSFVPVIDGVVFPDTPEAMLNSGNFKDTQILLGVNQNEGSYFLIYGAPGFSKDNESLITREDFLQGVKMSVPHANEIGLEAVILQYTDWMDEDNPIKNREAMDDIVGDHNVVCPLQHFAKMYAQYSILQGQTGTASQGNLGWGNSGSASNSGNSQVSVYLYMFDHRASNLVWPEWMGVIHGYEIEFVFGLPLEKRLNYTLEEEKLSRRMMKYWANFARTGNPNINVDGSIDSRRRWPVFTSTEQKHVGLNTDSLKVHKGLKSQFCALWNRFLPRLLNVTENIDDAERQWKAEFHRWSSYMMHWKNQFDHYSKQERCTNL

As for `O=C1/C(=C/c2ccc(Cl)cc2Cl)CN(C(=O)C2CC3CCCN3C23C(=O)Nc2cc(Cl)ccc23)C/C1=C\c1ccc(Cl)cc1Cl` (stereo not drawn) [compound A], the “AChE inhibitory activity IC50” value in the assay on AChE (compound A) is recorded as 2.37 ± 0.11 µg/mL. In addition, in the assay on AChE (compound A, read-out: AChE inhibitory activity IC50), the IC50 is 3.33 µM.
In the case of `O=C1/C(=C/c2ccc(Cl)cc2)CN(C(=O)C2CC3CCCN3C23C(=O)Nc2ccccc23)C/C1=C\c1ccc(Cl)cc1` (stereo not drawn) [compound B], the “AChE inhibitory activity IC50” value in the assay with AChE (compound B, Figure 1) was 2.28 ± 0.07 µg/mL.
As for `COc1ccc2c3c1O[C@H]1C[C@@H](O)C=C[C@@]31CCN(C)C2` [Galantamine], in the assay on AChE (positive control (STD), Table 1, read-out: AChE Inhibition IC50), the IC50 was […].
In assay [1] (Conc 1.56 ug/ml), `O=C(c1ccc(Cl)cc1)C1C(c2cc3ccccc3s2)C2CSCN2[C@@]12C(=O)Nc1ccccc12` (stereo partly drawn) [IIe, (3S)-7′-(Benzo[b]thiophen-2-yl)-6′-(4-chlorobenzoyl)-3′,6′,7′,7a’-tetrahydro-1′H-spiro[indoline-3,5′-pyrrolo[1,2-c]thiazol]-2-one] gave an inhibition at 1.56 µg/mL of 18.2%. This compound also yielded an inhibition at 3.125 µg/mL in assay [1] (Conc 3.125 ug/ml) of 23.3%. This compound also displayed an inhibition at 6.25 µg/mL in assay [1] (Conc 6.25 ug/ml) of 27.7%. In assay [1] (Conc 12.5 ug/ml), this compound came in with an inhibition at 12.5 µg/mL of 40.3%. In assay [1] (Conc 25 ug/ml), this compound displayed an inhibition at 25 µg/mL of 50.5%. Moreover, testing at 50 µg/mL in assay [1] (Conc 50 ug/ml) gave an inhibition of 58.6%. Further, the IC50 was 50.6 µM in assay [1] (read-out: IC50 value against AChE) and 50.6 µM in assay [1] (supplement, six concentrations 1.56-50 μg/mL, read-out: IC50 (AchE inhibition) (converted)).
